Test results reported in PMC9399069, “Imaging PARP with [^18F]rucaparib in pancreatic cancer models” (European Journal of Nuclear Medicine and Molecular Imaging, 2022).

Key:
Type in all cases: cell-based, human
AsPC1 cells [1] = test: Protein expression by flow cytometry after PARP inhibitors or DNA-damaging reagents, AsPC1 cells; conditions: 100 μM, 3 h
Procedure: (§1) Relative expression of PARP1, 2 and 3, ALDH2 and IMPDH2 was determined by flow cytometry. Cells (1 × 10^6 cells/well) were seeded in 96-well plates in growth medium, washed with FACS buffer (PBS, 2% FBS, 1 mM EDTA, 0.1% NaN3) and centrifuged at 500×g for 5 min. Immunostaining was performed using the Foxp3/transcription factor staining buffer set (eBioscience^TM, USA). Intracellular staining was conducted in permeabilisation buffer for 30 min at 4 °C in the dark using the following antibodies: AF488-conjugated anti-PARP-1 (1:100; sc-80070), AF594-conjugated anti-PARP-2 (1:100; sc-393310), anti-PARP-3 (1:100; sc-390771) or anti-PARP-tankyrase-1/2 (1:100; sc-365897) from Santa Cruz Biotechnology Inc. (USA), AF488-conjugated anti-IMPDH2 (1:500; ab-200770) from Abcam plc. (UK) and AF488-conjugated anti-ALDH2 (1:100, ABIN6817568) from Antibodies-online GmbH (UK). Fixable viability dye ef780 (1:4000; eBioscience^TM; 65-0865-14) was used for live and dead cells discrimination. Fixation of immunostained cells was performed for 15 min at room temperature. Flow cytometry was conducted on the CytoFLEX benchtop flow cytometer (Beckman Coulter, USA), with appropriate lasers and filters, positive and negative controls. Data were analysed using FlowJo^TM (Tree Star Inc., BD Biosciences, USA).
(§2) AsPC1 (1 × 10^5 cells/well) and PSN1 cells (7.5 × 10^4 cells/well) were exposed to methyl methanesulfonate (MMS) or temozolomide (TMZ) (100 μM, in a total of 270 μL growth medium) for 3 h at 37 °C. Additionally, [^18F]rucaparib (500 kBq, 3.6 GBq/μmol; [^TotalF]rucaparib final concentration: 301 nM) or [^18F]olaparib (400 kBq, 8.5 GBq/μmol; [^TotalF]olaparib final concentration: 300 nM) was added, and the cells were incubated at 37 °C for 30 min. Cell culture medium was removed, and cells were washed with PBS. For cell retention, fresh medium (300 μL) was added to the cells. Cells were then further incubated at 37°C for 3 h. Cell culture medium was removed, and the amount of ^18F in the cell lysates was measured as above. Protein expression of the cells after DNA-damaging treatments (or PARP inhibitors 10 μM) was performed using flow cytometry as above.

PSN1 cells [2] = test: Protein expression by flow cytometry after PARP inhibitors or DNA-damaging reagents, PSN1 cells; conditions: 100 μM, 3 h
Procedure: as §1, §2

AsPC1 cells [3] = test: Uptake and retention of radiolabelled PARP inhibitors in AsPC1 cells treated with DNA-damaging reagents; conditions: 100 μM, 3 h, retention at 3 h
Procedure: as §2

PSN1 cells [4] = test: Uptake and retention of radiolabelled PARP inhibitors in PSN1 cells treated with DNA-damaging reagents; conditions: 100 μM, 3 h, retention at 3 h
Procedure: as §2

AsPC1 cells [5] = test: In vitro uptake and binding selectivity of [18F]rucaparib in AsPC1 cells; conditions: unlabelled inhibitor 100 μM for 45 min before [18F]rucaparib (100 nM), further 45 min
Procedure: (§3) AsPC1 (1 × 10^5 cells/well) and PSN1 cells (7.5 × 10^4 cells/well) were seeded separately in 24-well plates (in 300 μL growth medium) and allowed to adhere for at least 20 h. […] To assess [^18F]rucaparib-binding selectivity, unlabelled PARP inhibitors, IMPDH2 or ALDH2 inhibitor, were added (100 μM, in 270 μL growth medium) for 45 min at 37 °C before addition of [^18F]rucaparib (156 kBq, 6.8 GBq/μmol; [^TotalF]rucaparib final concentration: 100 nM), and the cells were incubated at 37 °C for a further 45 min. Cell culture medium was removed, and cells were washed with PBS. Cells were lysed using RIPA buffer for 15 min at room temperature, and the amount of ^18F in the cell lysates was measured using an automated gamma counter (PerkinElmer), normalising for the number of cells.
(§4) Cells were lysed and the amount of ^18F in the cell lysates was measured as above.

PSN1 cells [6] = test: In vitro uptake and binding selectivity of [18F]rucaparib in PSN1 cells; conditions: PSN1 cells, unlabelled inhibitor 100 μM for 45 min before [18F]rucaparib (100 nM), further 45 min
Procedure: as §3, §4

Row | Structure (SMILES) | Upregulation of PARP proteins (AsPC1 cells [1]; flow cytometry) [%] | γH2AX expression (AsPC1 cells [1]; not statistically significant in AsPC1 cells) | γH2AX expression (PSN1 cells [2]) | Upregulation of PARP proteins (PSN1 cells [2]; flow cytometry) [%] | Cell association and retention of [TotalF]rucaparib and [TotalF]olaparib after exposure to DNA-damaging reagent (AsPC1 cells [3]) | Cell association and retention of [TotalF]rucaparib and [TotalF]olaparib after exposure to DNA-damaging reagent (PSN1 cells [4]) | Blocking of [18F]rucaparib uptake (AsPC1 cells [5]) | Blocking of [18F]rucaparib uptake (PSN1 cells [6])
1 | COS(C)(=O)=O [MMS, methyl methanesulfonate] | < 10 | increasing trend | increasing trend | < 10 | increased | increased |  | 
2 | O=c1c(-c2ccc(O)cc2)coc2cc(O[C@@H]3O[C@H](CO)[C@@H](O)[C@H](O)[C@H]3O)ccc12 [daidzin, reference compound] |  |  |  |  |  |  | significantly reduce | significantly reduce
